Assay results from ChEMBL document CHEMBL1201862, “PubChem BioAssay data set” (2004).
Calls of active or inactive are those of the source.

Legend:
[1] = target: Ion channel NompC (Danio rerio, UniProt Q7T1G6); assay: Fluorescence counterscreen assay for TRPML3 agonists: dose response cell-based high-throughput screening assay to identify agonists of the transient receptor potential channel N1 (TRPN1). [Related pubchem assays: 1526, 1424, 1448 ]; format: functional
[2] = target: Mucolipin-3 (Homo sapiens, UniProt Q8TDD5); assay: Dose response cell-based high-throughput screening assay for agonists of the transient receptor potential channel ML3 (TRPML3). [Related pubchem assays: 1526, 1424, 1448 ]; format: functional
[3] = target: T1, Heat shock factor protein 1 (Mus musculus, UniProt P38532); assay: enhancement of HSF1-driven luciferase signal – cell-based, NIH3T3, luminescence, dose retest, confirmation (AID 435004); format: functional;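 further: stress induced by proteasome inhibitor MG132 added 30 min after compound; luciferase reporter driven by HSF1 response element in NIH3T3 cells; actives raise luminescence as potentiators of the MG132 stress response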
T1 sequence (P38532 whole entry): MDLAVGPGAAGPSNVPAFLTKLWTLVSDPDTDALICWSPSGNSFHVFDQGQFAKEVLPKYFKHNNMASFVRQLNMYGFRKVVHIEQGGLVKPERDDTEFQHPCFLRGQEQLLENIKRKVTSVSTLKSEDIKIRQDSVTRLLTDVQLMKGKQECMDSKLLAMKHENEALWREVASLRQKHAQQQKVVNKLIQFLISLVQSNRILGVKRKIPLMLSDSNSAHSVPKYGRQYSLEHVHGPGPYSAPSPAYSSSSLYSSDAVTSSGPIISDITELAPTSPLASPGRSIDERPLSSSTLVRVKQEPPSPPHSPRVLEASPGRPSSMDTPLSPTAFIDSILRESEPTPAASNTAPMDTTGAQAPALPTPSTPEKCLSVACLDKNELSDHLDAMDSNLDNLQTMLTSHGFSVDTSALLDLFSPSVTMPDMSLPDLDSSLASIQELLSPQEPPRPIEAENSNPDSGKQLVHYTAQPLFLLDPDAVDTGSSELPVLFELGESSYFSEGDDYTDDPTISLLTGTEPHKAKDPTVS

[4] = target: T2, Heat shock 70 kDa protein 1A (Homo sapiens, UniProt P0DMV8); assay: small-molecule inhibition of Hsp70 – biochemical, TR-FRET (AID 786)
[5] = tested on: HEK293; assay: inhibition of NOD1-driven NF-kB reporter – cell-based, luminescence, uHTS, primary screen (AID 1578); format: functional; settings: Homo sapiens
[6] = tested on: HEK293; assay: cells; format: functional, cell-based; settings: Homo sapiens
[7] = target: T3, Nucleotide-binding oligomerization domain-containing protein 1 (Homo sapiens, UniProt Q9Y239); assay: blockers of NOD1 pathway activity – revised, SAR follow-up (AID 2333); format: functional
T3 sequence (Q9Y239 whole entry): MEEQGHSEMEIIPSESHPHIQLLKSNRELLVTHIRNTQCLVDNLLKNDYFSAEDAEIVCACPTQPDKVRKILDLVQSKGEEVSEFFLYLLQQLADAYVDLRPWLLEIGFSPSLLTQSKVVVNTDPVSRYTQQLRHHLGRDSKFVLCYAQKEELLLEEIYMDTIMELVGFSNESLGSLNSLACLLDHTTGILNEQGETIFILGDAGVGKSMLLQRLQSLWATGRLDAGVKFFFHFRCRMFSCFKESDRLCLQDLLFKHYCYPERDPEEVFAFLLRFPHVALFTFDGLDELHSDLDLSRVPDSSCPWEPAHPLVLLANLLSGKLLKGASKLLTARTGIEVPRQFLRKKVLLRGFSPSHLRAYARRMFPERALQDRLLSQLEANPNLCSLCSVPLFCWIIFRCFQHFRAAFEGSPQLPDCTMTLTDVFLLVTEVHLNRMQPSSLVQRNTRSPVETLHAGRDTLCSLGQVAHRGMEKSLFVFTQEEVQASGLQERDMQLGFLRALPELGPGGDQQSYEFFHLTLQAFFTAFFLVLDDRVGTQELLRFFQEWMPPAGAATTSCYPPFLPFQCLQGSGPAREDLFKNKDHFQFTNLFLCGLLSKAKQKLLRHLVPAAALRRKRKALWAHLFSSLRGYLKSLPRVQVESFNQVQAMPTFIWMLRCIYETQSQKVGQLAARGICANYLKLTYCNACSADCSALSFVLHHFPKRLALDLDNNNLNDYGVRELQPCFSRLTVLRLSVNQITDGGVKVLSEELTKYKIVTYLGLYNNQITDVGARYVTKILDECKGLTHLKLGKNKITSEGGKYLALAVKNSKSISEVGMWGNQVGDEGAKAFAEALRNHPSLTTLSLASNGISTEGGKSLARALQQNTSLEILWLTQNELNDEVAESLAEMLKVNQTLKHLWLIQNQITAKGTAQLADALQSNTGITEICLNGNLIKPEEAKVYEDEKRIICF

[8] = NIH-3T3 fibroblast cytotoxicity, dose response, cytotoxicity control, cell-based, fluorescence, Alamar Blue, secondary assay (AID 2327); format: functional;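 further: NIH-3T3 mouse fibroblasts cultured with fluconazole at 8 µg/mL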
[9] = target: Tumor necrosis factor (Homo sapiens, UniProt P01375); assay: analog potency on TNFa NF-kB signaling – cell-based, revised, SAR follow-up (AID 2337); format: functional
[10] = tested on: HEK293; assay: NOD2 signaling inhibitors in MDP-stimulated cells, cell-based, uHTS, luminescence (AID 2001); format: functional; settings: Homo sapiens
[11] = tested on: HEK293; assay: cells; format: functional, cell-based; settings: Homo sapiens; remark: listed apart in the source
[12] = target: Nucleotide-binding oligomerization domain-containing protein 2 (Homo sapiens, UniProt Q9HC29); assay: inhibition of NOD2-driven NF-kB reporter – cell-based, luminescence, uHTS, HEK293 (AID 1566); format: functional
[13] = target: T2, Heat shock 70 kDa protein 1A; assay: small molecules displacing fluorescent ligand from Hsp70 – biochemical, fluorescence polarization, primary screen (AID 583)
[14] = fluconazole-exposed Candida albicans growth modulators – fluorescence, retest, confirmation (AID 2467); format: functional, cell-based
[15] = tested on: HEK293; assay: cells; settings: Homo sapiens
[16] = tested on: HEK293; assay: cells; format: functional, cell-based; settings: Homo sapiens; remark: listed apart in the source
[17] = target: T4, Neuropeptide Y receptor type 2 (Homo sapiens, UniProt P49146); assay: IC50 for human NPY-Y2 blockade – cell-based, counter-screen for NPY-Y1 antagonist project, dose response (AID 1278); format: functional
T4 sequence (P49146 whole entry): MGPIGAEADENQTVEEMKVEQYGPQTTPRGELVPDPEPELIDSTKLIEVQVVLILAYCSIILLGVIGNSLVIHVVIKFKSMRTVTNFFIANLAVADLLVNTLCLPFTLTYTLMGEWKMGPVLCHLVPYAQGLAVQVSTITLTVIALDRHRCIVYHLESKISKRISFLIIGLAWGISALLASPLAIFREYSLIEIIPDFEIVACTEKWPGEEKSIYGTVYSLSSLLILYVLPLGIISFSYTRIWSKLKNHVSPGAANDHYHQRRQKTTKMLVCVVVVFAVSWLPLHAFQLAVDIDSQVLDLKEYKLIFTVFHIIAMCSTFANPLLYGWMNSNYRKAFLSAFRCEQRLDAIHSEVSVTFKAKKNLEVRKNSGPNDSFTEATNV

[18] = Trypanosoma cruzi growth suppression in host cells – NIH3T3 host cells, beta-gal luminescence, confirmation (AID 2044); format: functional, cell-based;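 further: intracellular parasites grown in NIH/3T3 mouse fibroblasts as host cells; luminescent beta-galactosidase reporter signal from transgenic T. cruzi replicating inside host cells; inhibitors lower the luminescence signal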
[19] = target: T5, Neuropeptide Y receptor type 1 (Homo sapiens, UniProt P25929); assay: IC50 of human NPY-Y1 blockers – cell-based, dose response (AID 1277); format: functional
T5 sequence (P25929 whole entry): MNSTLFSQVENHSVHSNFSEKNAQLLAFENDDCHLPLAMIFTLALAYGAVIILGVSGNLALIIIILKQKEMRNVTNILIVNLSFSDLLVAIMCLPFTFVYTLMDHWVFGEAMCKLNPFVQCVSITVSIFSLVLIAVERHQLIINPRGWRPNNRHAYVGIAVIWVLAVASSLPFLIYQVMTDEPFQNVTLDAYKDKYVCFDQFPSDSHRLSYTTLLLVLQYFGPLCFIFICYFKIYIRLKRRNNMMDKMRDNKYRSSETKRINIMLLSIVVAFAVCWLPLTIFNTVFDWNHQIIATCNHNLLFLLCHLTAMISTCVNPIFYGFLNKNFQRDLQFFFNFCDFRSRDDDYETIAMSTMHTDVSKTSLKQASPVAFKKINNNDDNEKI

[20] = target: T6, Calpain-2 catalytic subunit (Sus scrofa, UniProt P43367); assay: m-calpain protease blockers, concentration series – biochemical, fluorogenic peptide substrate, dose response (AID 1420); format: functional
T6 sequence (P43367 whole entry): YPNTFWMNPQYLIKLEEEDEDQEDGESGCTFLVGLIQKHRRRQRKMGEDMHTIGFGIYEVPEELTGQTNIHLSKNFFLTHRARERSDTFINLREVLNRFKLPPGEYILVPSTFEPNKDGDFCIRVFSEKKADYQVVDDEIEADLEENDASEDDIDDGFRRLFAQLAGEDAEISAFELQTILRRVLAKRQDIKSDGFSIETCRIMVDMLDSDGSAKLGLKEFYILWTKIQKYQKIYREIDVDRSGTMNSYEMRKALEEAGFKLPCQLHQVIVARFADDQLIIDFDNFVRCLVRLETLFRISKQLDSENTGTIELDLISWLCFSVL

[21] = NIH3T3 cell viability loss – ATP luminescence, mouse fibroblasts, counter-screen, dose response (AID 2010); format: functional, cell-based;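 further: cells exposed to compound for about 90 hours before reading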
[22] = target: Lytic switch protein BZLF1 (Epstein-Barr virus (strain B95-8) (HHV-4) (Human herpesvirus 4), UniProt P03206); assay: inhibition of BZLF1 ZTA DNA binding – biochemical, fluorescence polarization, Epstein-Barr virus, 1536-well, counter-screen for EBNA-1 inhibitor project, dose response (AID 2377); design: species or system human gammaherpesvirus 4;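 further: fluorescence polarization of Cy5-labelled ZRE DNA probe bound by purified Zta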
[23] = target: Epstein-Barr nuclear antigen 1 (Epstein-Barr virus (strain B95-8) (HHV-4) (Human herpesvirus 4), UniProt P03211); assay: inhibition of EBV nuclear antigen 1 DNA binding – biochemical, fluorescence polarization, 1536-well, dose response (AID 2381); design: species or system human gammaherpesvirus 4;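 further: fluorescence polarization of a Cy5 DNA probe bound by EBNA-1 protein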
[24] = antiviral protection against BTV-induced cell death – arbovirus, BSR cells, confirmation (AID 1250); format: functional;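 further: protection from viral cytopathic effect measured as cell viability by ATP luminescence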
[25] = target: Nonstructural protein 1 (Influenza A virus, UniProt Q194T2); format: functional, Influenza A virus (A/California/07/2009(H1N1))
[26] = viability loss in HepG2 hepatoma cells – cell-based, ATP luminescence, cherry-pick, activator set 2, cytotoxicity control, dose response (AID 1053143); format: functional
[27] = tested on: INS1; assay: INS-1E survival protection against cytokine death – cell-based, luminescence, retest, dose response (AID 449756); format: functional; settings: Rattus norvegicus;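 further: cell death triggered by IL-1 beta plus TNF-alpha plus IFN-gamma mixture; protective hits raise ATP signal compared with cytokine alone wells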
[28] = Counterscreen for AddAB inhibitors: absorbance-based bacterial cell-based high throughput dose response assay for inhibitors of bacterial viability. [Related pubchem assays (depositor defined):AID435030, AID449728, AID449731, AID488942, AID488955, AID488956]; format: functional
[29] = target: Exodeoxyribonuclease V (Escherichia coli (strain K12), UniProt P04993+P07648+P08394); assay: RecBCD inhibition via phage-restricted bacterial growth – absorbance, V66 E. coli, mutant T4 phage, counter-screen for AddAB inhibitor project, dose response (AID 492957); format: functional, cell-based, Escherichia coli str. K-12 substr. MG1655
[30] = Luminescence-based counterscreen assay for KLF5 inhibitors: dose response cell-based high throughput screening assay to identify cytotoxic compounds using the IEC-6 intestinal epithelial cell line. [Related pubchem assays: 1700 (Primary screen.), 1834 (Confirmation screen.), 1858 (Summary AID.), 1905 (Counterscreen.)]; format: functional

T2 sequence (P0DMV8 whole entry): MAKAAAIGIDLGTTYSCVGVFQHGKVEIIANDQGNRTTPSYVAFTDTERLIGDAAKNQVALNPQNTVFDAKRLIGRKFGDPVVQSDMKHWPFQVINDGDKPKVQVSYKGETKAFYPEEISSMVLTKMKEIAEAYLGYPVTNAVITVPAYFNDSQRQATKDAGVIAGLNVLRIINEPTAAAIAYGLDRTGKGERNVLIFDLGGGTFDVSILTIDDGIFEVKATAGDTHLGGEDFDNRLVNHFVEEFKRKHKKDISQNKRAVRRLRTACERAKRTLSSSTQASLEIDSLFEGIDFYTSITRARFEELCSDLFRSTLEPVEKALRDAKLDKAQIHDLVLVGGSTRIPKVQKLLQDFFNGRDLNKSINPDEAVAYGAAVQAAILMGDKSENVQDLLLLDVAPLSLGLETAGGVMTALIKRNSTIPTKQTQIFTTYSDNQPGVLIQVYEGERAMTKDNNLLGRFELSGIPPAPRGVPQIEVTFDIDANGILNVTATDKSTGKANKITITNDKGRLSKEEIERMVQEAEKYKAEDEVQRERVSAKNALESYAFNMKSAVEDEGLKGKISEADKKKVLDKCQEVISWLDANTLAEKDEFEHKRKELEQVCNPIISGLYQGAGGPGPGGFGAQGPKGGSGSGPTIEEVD
Nucleotide-binding oligomerization domain-containing protein 2, sequence (Q9HC29 whole entry, the tested form may be a part): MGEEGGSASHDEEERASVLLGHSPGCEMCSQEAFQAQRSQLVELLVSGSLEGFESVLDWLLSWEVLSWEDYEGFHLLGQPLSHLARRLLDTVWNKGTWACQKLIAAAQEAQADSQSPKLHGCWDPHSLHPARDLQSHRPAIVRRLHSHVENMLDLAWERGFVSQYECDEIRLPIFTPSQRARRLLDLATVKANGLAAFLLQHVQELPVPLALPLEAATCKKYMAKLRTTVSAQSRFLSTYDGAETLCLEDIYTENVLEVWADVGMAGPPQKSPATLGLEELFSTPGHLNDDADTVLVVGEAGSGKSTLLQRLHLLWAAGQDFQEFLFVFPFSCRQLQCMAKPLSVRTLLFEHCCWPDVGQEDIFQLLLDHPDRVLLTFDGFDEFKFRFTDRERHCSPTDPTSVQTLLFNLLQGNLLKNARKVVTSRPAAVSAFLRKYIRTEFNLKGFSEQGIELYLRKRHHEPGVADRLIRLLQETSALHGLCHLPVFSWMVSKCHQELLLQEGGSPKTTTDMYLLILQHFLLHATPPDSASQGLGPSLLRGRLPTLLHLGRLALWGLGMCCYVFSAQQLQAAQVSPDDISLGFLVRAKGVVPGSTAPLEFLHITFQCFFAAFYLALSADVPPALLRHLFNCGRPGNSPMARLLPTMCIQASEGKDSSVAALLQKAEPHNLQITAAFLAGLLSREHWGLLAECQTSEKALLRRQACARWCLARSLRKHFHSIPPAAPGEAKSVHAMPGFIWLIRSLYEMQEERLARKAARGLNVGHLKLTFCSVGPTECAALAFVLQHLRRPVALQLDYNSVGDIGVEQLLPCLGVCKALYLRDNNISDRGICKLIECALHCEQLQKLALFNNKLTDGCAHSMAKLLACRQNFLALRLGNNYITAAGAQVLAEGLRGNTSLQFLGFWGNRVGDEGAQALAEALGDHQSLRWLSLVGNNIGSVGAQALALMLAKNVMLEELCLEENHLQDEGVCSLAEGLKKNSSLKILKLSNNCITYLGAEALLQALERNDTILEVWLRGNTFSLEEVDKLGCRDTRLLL
Exodeoxyribonuclease V, sequence (P04993 whole entry): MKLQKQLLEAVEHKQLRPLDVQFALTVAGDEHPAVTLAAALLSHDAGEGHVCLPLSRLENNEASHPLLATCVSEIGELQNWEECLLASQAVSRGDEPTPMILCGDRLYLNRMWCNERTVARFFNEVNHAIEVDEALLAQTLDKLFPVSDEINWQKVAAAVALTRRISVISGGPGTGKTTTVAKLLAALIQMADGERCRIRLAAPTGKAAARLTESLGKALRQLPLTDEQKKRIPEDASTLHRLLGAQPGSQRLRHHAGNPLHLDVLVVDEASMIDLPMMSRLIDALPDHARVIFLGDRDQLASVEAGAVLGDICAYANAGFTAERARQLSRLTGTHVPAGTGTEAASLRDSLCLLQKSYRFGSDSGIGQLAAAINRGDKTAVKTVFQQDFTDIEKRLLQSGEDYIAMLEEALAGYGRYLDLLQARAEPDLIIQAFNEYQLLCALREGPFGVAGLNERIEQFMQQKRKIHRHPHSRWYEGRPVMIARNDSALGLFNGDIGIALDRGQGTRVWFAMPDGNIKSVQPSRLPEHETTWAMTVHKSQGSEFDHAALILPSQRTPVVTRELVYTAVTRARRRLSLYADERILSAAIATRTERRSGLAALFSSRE
Exodeoxyribonuclease V, sequence (P07648 whole entry): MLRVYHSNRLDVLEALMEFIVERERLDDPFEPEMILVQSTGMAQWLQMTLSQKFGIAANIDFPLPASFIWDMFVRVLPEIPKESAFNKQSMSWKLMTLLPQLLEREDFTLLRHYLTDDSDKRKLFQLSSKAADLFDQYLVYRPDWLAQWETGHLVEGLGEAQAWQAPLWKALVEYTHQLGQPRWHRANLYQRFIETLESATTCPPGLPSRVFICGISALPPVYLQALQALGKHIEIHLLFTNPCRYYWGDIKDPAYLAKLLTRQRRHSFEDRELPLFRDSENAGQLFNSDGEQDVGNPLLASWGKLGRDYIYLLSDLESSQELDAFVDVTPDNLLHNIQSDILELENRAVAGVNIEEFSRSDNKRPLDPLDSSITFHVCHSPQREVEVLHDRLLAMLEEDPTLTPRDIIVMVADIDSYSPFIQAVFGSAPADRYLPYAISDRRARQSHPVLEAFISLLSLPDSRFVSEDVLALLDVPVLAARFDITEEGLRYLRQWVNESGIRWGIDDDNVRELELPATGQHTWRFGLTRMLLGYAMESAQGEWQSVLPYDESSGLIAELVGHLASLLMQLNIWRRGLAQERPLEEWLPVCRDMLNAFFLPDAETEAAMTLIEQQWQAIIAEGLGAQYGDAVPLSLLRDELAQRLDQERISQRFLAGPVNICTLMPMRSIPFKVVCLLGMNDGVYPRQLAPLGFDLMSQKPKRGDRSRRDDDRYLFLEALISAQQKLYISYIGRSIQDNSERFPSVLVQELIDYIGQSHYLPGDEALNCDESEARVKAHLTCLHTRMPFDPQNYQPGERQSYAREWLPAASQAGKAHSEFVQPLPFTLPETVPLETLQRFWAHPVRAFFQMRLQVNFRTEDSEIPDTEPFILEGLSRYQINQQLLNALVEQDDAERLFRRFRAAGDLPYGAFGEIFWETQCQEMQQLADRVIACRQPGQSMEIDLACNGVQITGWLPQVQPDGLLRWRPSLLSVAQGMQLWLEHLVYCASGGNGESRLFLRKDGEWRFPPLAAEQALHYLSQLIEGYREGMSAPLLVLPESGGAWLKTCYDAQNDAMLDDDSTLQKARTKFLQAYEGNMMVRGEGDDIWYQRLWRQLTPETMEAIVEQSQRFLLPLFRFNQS
Exodeoxyribonuclease V, sequence (P08394 whole entry): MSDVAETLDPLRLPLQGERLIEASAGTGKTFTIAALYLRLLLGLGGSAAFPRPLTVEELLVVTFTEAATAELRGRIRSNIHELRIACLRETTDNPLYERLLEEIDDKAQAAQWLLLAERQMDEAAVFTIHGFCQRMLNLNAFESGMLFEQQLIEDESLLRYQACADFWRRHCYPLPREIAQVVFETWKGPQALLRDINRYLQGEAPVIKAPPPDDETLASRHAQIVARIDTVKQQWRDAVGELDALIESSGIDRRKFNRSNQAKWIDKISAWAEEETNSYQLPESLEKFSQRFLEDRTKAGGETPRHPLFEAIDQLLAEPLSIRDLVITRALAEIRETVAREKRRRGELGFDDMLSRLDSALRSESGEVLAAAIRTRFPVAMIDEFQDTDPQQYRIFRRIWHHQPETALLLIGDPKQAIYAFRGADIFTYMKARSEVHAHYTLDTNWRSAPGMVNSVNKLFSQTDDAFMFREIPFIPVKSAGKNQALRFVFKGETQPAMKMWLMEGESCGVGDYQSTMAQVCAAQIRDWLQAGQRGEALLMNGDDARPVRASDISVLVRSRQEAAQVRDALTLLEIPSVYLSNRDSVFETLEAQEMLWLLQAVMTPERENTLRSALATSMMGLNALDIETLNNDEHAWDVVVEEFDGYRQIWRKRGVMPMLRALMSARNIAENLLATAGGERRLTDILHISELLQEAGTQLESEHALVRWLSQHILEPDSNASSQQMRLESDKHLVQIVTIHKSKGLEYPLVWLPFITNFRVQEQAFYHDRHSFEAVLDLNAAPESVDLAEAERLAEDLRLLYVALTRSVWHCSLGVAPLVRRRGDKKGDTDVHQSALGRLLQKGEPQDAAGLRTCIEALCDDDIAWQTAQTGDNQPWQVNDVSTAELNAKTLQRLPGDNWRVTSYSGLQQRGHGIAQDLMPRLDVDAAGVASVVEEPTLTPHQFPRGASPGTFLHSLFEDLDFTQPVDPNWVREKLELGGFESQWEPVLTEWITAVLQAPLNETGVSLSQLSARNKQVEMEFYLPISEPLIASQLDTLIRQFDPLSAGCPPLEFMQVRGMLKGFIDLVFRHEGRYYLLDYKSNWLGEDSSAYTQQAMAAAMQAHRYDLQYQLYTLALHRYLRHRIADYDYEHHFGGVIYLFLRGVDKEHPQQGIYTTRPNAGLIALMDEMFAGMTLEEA
Tumor necrosis factor, sequence (P01375 whole entry): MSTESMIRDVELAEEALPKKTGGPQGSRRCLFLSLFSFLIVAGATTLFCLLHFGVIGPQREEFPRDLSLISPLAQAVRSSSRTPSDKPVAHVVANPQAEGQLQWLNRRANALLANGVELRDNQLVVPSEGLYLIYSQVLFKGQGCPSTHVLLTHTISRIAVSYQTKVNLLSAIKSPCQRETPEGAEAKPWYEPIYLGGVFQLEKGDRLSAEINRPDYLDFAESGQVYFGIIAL
Lytic switch protein BZLF1, sequence (P03206 whole entry): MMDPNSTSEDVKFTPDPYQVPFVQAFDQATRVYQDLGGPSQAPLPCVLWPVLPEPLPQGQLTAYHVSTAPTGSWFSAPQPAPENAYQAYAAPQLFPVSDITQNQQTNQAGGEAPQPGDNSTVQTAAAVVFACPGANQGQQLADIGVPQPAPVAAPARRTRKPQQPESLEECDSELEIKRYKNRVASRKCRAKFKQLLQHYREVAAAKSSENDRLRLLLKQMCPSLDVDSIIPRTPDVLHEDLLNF

With `O=C(Nc1c(S(=O)(=O)c2ccc(Cl)cc2)csc1Br)c1ccccc1Cl` the EC50 [1] was > 29.9 µM (not active), the EC50 [2] was > 3.32 µM (active) and the EC50 [3] was > 260 µM (inactive).
In the case of `O=[N+]([O-])c1ccc(Cl)c(/C=C/c2cc(C(F)(F)F)nc(O)n2)c1`, the IC50 [4] was > 100 µM (not active), the EC50 [5] was 6.85 µM (active) and the IC50 [6] was > 20 µM (inactive). The IC50 [7] was 4.4 µM (active), the EC50 [8] was > 150 µM (inactive) and the IC50 [9] was 10.3 µM (active). The IC50 [10] was 11.8 µM (inactive), the IC50 [11] was 10.2 µM (active) and the EC50 [12] was > 20 µM (inactive). The IC50 [13] was 46.4 µM (active), the EC50 [14] was 1.8 µM (active) and the IC50 [15] was > 20 µM (inactive). For the same molecule, the IC50 [16] was > 20 µM (inactive).
With `COc1ccc(N(C)S(=O)(=O)c2cccc(C(=O)NCC3CCCCC3)c2)cc1` the IC50 [17] was > 35 µM (not active), the EC50 [18] was > 30 µM (not active) and the IC50 [19] was > 35 µM (not active). The IC50 [20] was 14.1 µM (not active) and the EC50 [21] was > 30 µM (not active).
With `CCOc1ccc(NC(=O)CCC(=O)NNC(=O)COc2ccc(C)cc2Br)cc1` the IC50 [22] was > 111 µM (not active) and the IC50 [23] was 5.52 µM (active).
For `COc1cccc(-c2nc(SCC(=O)Nc3nc(-c4ccccc4)c(C)s3)nc(O)c2C#N)c1`, the IC50 [24] was 23.4 µM (active).
In the case of `Oc1cccc(/C=N/Nc2ccc(Cl)nn2)c1O`, the EC50 [5] was > 20 µM (inactive), the IC50 [25] was 2.23 µM (active) and the AC50 [26] was 20.4 µM (active). For the same molecule, the IC50 [6] was > 20 µM (inactive), the AC50 [27] was 1.76 µM (active) and the IC50 [10] was > 20 µM (inactive). For the same molecule, the IC50 [28] was > 119 µM (inactive), the IC50 [11] was 17.5 µM (active) and the IC50 [29] was > 119 µM (inactive). The EC50 [12] was > 20 µM (inactive), the IC50 [30] was 7.91 µM (active) and the IC50 [16] was > 20 µM (inactive).
